According to patent US10398703B2, “Therapeutic compounds and uses thereof” (Kala Pharmaceuticals, Inc., priority 2013, dated 2019):
Read-outs that look alike come from different tables or passages of the source.

Assays:
[1] = Back of the eye drug exposure (PK) after topical instillation of compound MPP; format: in vivo; conditions: rabbit, topical or ocular, 50 μL of 0.5% MPP formulation, MPP 0.5%, 50 μL topical BID 5 days, Dutch-belted rabbits, 8 mm punch
Text: Dutch-belted rabbits were used in these studies.
The portion of the retina and choroid collected and analyzed was an 8 mm round punch where the macula is located in humans.

[2] = Mobility of MPP nanoparticles in human cervicovaginal mucus (dark field microscopy); conditions: low pH of human cervicovaginal mucus
Description: In order to determine whether the generated nanoparticles have reduced interactions with mucins and are therefore able to move within mucus without becoming trapped, particles were incubated with human cervicovaginal mucus (CVM) and observed via dark field microscopy. In a typical experiment, […] of the nanoparticle suspension was added to 20 μl of CVM. Observations were made in a minimum of three distinct and randomly selected areas of the CVM sample. Control particles with known behavior were used to qualify the CVM sample as appropriate for the assay. For all compounds (except compound 55) listed in Table 4, mobility in mucus was observed and therefore the nanoparticles were deemed to be effective MPP.

[3] = choroid, read-out: AUC0-last Choroid
[4] = choroid, read-out: Cmax Choroid
[5] = retina, read-out: AUC0-last Retina

AUC(0-t) [1, 3]	Cmax [1, 4]	AUC(0-t) [1, 5]	Cmax ([1]; retina, read-out: Cmax Retina)	solubility in CVM [2]	SMILES
5.4 µM·h	693 nM	0.915 µM·h	110 nM		COc1cc2c(Oc3ccc(NC(=O)Nc4cc(C)on4)c(Cl)c3)ncnc2cc1OCCCN1CCC2(CC1)COC2 [Compound 9]
2.45 µM·h	265 nM	0.308 µM·h	39 nM		COc1cc2c(Oc3ccc(NC(=O)Nc4cc(C)ccc4F)c(Cl)c3)ncnc2cc1OCCCN1CCC2(CC1)COC2 [Compound 12]
5.79 µM·h	574 nM	0.297 µM·h	33 nM		COc1cc2c(Oc3ccc(NC(=O)Nc4cc(C)ccc4F)c(Cl)c3)ccnc2cc1OCCCN1CCC2(CC1)COC2 [Compound 25]
				soluble in the low pH of CVM	COc1cc2ncnc(Oc3ccc(NC(=O)Nc4ccc(CN5CCN(C)CC5)cc4)c(Cl)c3)c2cc1OC [Compound 55]
